Data on one substance can be found in patent US11181533B2, “Diagnosing and treating Alzheimer's disease” (DIGNITY HEALTH, priority 2013, dated 2021).

Assay [1] concerns SAMP8 mice and APP transgenic mice. The note with it: intranasal administration, cited from earlier work.
In a further assay the test system is Aβ induced cell death. Kind of assay: Protection against Aβ induced cell death. The class given is cell-based. Conditions: by enhancing mitochondrial function.

Like-named read-outs stand apart in the source and are kept apart here. No end group written: not given here.

Regarding “Pituitary Adenylate Cyclase Activating Polypeptide (HSDGIFTDSYSRYRKQMAVKKYLAAVLGKRYKQRVKNK; ends and bridges not checked; UniProt P18509 132-169, looked up) [PACAP, small peptide with either 38 amino acids in full length form (PACAP-38), or 27 amino acids in short form (PACAP-27); neurotrophin]”, the Novel object recognition entry in assay [1] (APP transgenic mice) and in assay [1] (SAMP8 mice) was “enhances Novel object recognition” throughout. In the assay on Aβ induced cell death, the “protection against Aβ induced cell death” value is “protects against Aβ induced cell death”.
